Values quoted from earlier work in US9011933B2, “Therapeutic methods and pharmaceutical compositions for treating warts with tellurium compounds” (Biomas Ltd., priority 2004, dated 2015).
Like-named read-outs stand apart in the source and are kept apart here.

Tests used:
[1] = tested on: warts
[2] = tested on: human viruses; details: studies conducted heretofore
[3] = rats; intravenous and intramuscular dosage

## bleomycine
[1]; intralesional therapy
  success rate: ~70%

## Cl[TeH]1(Cl)(Cl)OCCO1 [AS101, ammonium trichloro(dioxyethylene-O,O′)tellurate]
[2]
  efficacy as an anti-viral agent against human viruses: insufficient
[3]
  LD50 relative to the immunology effective dose: 500-1000 folds

## O=C(O)c1ccccc1O [salicylic acid]
[1]; topical standard treatment, after 4 weeks, at best
  cure rate: ≤ 40%

## N#N [liquid nitrogen]
[1]; after a median of 19 months
  patients remaining clear of warts: 57%
[1]; liquid nitrogen treatment of warts
  initial cure, patients: 52-83%

## O=C(O)C(Cl)(Cl)Cl [trichloro acetic acid]
[1]; typical result of treatment
  cure rate: 64-81%
